Source: US20090299063A1, “Inhibitors for Extracellular Signal-Regulated Kinase Docking Domains and Uses Therefor” (priority 2005, published 2009)
“Also recorded” adds a separate entry of the source.

What was measured:
[1] = system: ERK-mediated phosphorylation of Rsk-1 on Thr573; experiment: ERK-mediated Rsk-1 phosphorylation, immunoblot of EGF-stimulated HeLa cells; assay type: cell-based, human
HeLa cells = experiment: Colony formation assay, HeLa cells; assay type: cell-based, human; conditions: FIG. 8A, 10 cm plates, 100 mM (printed) compound
Procedure: (§1) HeLa, A549, or SUM-159 cells were plated at a low density of 200-400 cells per well in the absence or presence of putative ERK docking domain inhibitors. Cell colonies were stained with crystal violet and counted after 6-10 days. In FIG. 8A cells were grown on 10 cm plates in the absence (−) or presence of […] of compound 67, 36, 68, 81, or 76. Colony formation dose response in the presence of the indicated concentrations of compound 76 (closed squares) or 81 (open squares) for Hela cells ([…]) (FIG. 8B), A549 cells (50 mM) (FIG. 8C), or SUM-159 cells (50 mM) (FIG. 8D).
(§2) Two methods were used to determine cell proliferation and survival based on colony formation. First, HeLa cells were grown to 70-80% confluence and then treated for 16 hours in the absence (DMSO only) or presence of active compounds. The next day cells were trypsinized, replated (1000-2000 cells per 10 cm culture dish) in regular media and allowed to grow for 8-14 days. Cells then were fixed for 10 minutes in 4% paraformaldehyde and stained with 0.2% crystal violet (in 20% methanol) for 1-2 minutes. Cells were washed several times with distilled water and colonies formed of at least 40 cells were counted. In the second method, growing cells were trypsinized and replated (500-1000 cells per 35 or 60 mm well, respectively) in the presence or absence of various concentrations of the test compounds. Following incubation for 8-14 days, cells were fixed, stained with crystal violet, and counted as described above.
The effects of the active compounds on cell proliferation and survival were tested using a colony formation assay.
(§3) Thus, several test compounds that show maximal inhibition of ERK substrates are also effective inhibitors of proliferation in cultured cancer cell lines.

[2] = system: ERK-specific phosphorylation of Elk-1 on Ser383; experiment: ERK-mediated Elk-1 phosphorylation, immunoblot of EGF-stimulated HeLa cells; assay type: cell-based, human
Procedure: (§4) In FIGS. […] The far left lane is the control (−) with no EGF. […] The control (C) is EGF only treatment. In FIG. 4B cells pretreated with increasing concentrations of compound 76 were stimulated with EGF. ELK-1 phosphorylation on Ser383 (pELK-1) was measured by immunoblotting. […] Protein lysates were separated by SDS-PAGE and immunoblotted simultaneously for phosphorylated ELK-1 (pELK-1, Ser383), dually phosphorylated ERK1/2 (ppERK1/2), and a-tubulin as a protein loading control. […] The control (C) is EGF only treatment.
(§5) The lysates then were diluted with an equal volume of 2× SDS-sample buffer and the proteins were separated on SDS-PAGE for immunoblot analysis. Immunoblot analysis was done as previously described (41-43).
Compounds that were identified using the 3D structure of phosphorylated ERK2 also were tested.

[3] = system: dually phosphorylated ERK1/2 (ppERK1/2); experiment: ERK1/2 phosphorylation on activating sites (ppERK1/2), immunoblot of EGF-stimulated HeLa cells; assay type: cell-based, human
Procedure: as §4, with “FIGS. 4A-4B HeLa cells were treated with EGF for 5 minutes with or without […] of test compounds.” for “FIGS.”
as §5

ERK2 = target: T1, ERK2 (Mus musculus, UniProt P63085); experiment: ERK2 fluorescence titration (quenching of intrinsic fluorescence); assay type: binding; conditions: for quenching of ERK2 fluorescence (in words): wild type ERK2, excitation 295 nm
T1 construct: (His)6; made in house; host or cells: bacteria
From the text: ERK2 was purified as described previously (46) with some modifications. Briefly, (His)6-tagged ERK2 was expressed in bacteria and the cells were harvested in BugBuster protein extraction reagent (EMD Biosciences, San Diego, Calif.). Clarified lysates were loaded onto a Talon Co^2+-IMAC affinity chromatography resin column (BD Biosciences, San Jose, Calif.) and the bound protein was eluted using increasing concentrations of imidazole. SDS-PAGE electrophoresis and Coomassie blue staining were used to identify the eluted fractions containing the ERK2 protein. The ERK2 protein concentration was determined using Bradford Reagent (Sigma).
Experiments will measure the changes in the intrinsic ERK2 fluorescence due to the presence of aromatic amino acids, with the indole group of tryptophan being the major fluorophore with absorption and emission maxima around 280 and 340 nanometers (nm), respectively. Fluorescence spectra were recorded with a Luminescence Spectrometer LS50 (Perkin Elmer, Boston, Mass.). For all experiments, ERK2 protein was diluted into 20 mM Tris-HCl, pH 7.5. Titrations were performed by increasing the test compound concentration while maintaining the ERK2 protein concentration at […]. […] The excitation wavelength was 295 nm and fluorescence was monitored from 300 to 500 nm. All reported fluorescence intensities are relative values and are not corrected for wavelength variations in detector response. Dissociation constants, KD, were determined using reciprocal plots, 1/v vs 1/[I], where v represents the percent occupied sites calculated assuming fluorescence quenching to be directly proportion to the percentage of occupied binding sites, [1] represents the concentration of the inhibitor compound and the slope of the curve equals the KD (48-49).
ERK2 contains three tryptophans, which have intrinsic fluorescence.

[4] = system: SUM-159 estrogen-receptor negative breast cancer cell line; experiment: Colony formation assay, SUM-159 cells; assay type: cell-based, human; conditions: SUM-159, FIG. 8D
Procedure: as §1
as §2, with “In the second method, growing cells were trypsinized and replated (500-1000 cells per 35 or 60 mm well, respectively) in the presence or absence of various concentrations of the test compounds.” left out, “above. […]” for “above.”

[5] = system: HT1080 fibrosarcoma cells; experiment: Cell proliferation, HT1080 cells; assay type: cell-based, human; conditions: HT1080, data not shown
Procedure: as §2, §3

colony formation = experiment: Colony formation assay of compounds 86-98 (cell line not given); assay type: cell-based; conditions: Table 3
Procedure: Cell colonies were stained with crystal violet and counted after 6-10 days.
Cells then were fixed for 10 minutes in 4% paraformaldehyde and stained with 0.2% crystal violet (in 20% methanol) for 1-2 minutes.

[6] = increasing doses of compound, EGF stimulation
[7] = 75 mM (printed) test compound 30 minutes, EGF 5 minutes

T1 sequence (P63085 whole entry): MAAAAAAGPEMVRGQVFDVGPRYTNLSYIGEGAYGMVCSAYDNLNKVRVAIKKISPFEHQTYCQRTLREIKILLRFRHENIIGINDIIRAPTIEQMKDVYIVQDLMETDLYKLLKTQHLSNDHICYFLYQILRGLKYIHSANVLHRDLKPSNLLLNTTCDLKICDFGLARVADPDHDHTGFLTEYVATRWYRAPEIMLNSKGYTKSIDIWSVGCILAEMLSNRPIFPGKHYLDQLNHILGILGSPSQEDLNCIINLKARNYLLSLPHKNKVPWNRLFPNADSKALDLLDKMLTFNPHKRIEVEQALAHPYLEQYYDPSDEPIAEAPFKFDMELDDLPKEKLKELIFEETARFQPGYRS

Structure (SMILES) | effect on ERK-mediated Rsk-1 phosphorylation (in words) [1] | effect on colony formation / cell proliferation (in words) (HeLa cells) | effect on ERK-mediated Elk-1 phosphorylation (Ser383) [2, 6] | effect on ERK1/2 phosphorylation on its activating sites [3, 6] | y-intercept of reciprocal plot (indicating a single binding site) (ERK2; wild type ERK2) | quenching of ERK2 fluorescence (in words) (ERK2) | inhibition of cell proliferation (in words) [4] | inhibition of cell proliferation (in words) [5] | effect on EGF-mediated ELK-1 phosphorylation (Ser383) [2, 7] | effect on ERK1/2 phosphorylation (ppERK1/2) [3, 7] | IC50 (colony formation) [µM]
N=C(N)Nc1nc(C2COc3ccccc3O2)cs1 (stereo not drawn) [Compound 36] | little effect on ERK substrate phosphorylation; also recorded: little effect on ERK-mediated Rsk-1 phosphorylation | subtle inhibition of colony formation; also recorded: little effect on colony formation | – | – | – | – | – | – | – | – | –
CCOc1ccc(C=C2SC(=O)N(CCN)C2=O)cc1 [Compound 76] | highest inhibition of Rsk-1 phosphorylation | completely inhibited cell proliferation | inhibited ERK-mediated Elk-1 phosphorylation | largely unaffected | 1.8 | strong quenching of fluorescence | inhibition of cell proliferation | inhibition of cell proliferation | – | – | –
O=C(CCN1CCN(C/C=C/c2ccccc2)CC1)Nc1ccc(Cl)cc1 [Compound 81] | – | completely inhibited cell proliferation | – | – | – | quenching only occurs to a small extent at the higher concentrations | inhibition of cell proliferation | inhibition of cell proliferation | – | – | –
COc1cc(C=C2NC(=O)NC2=O)ccc1OCc1ccc(Br)cc1 [Compound 95] | – | – | – | – | – | quenched ERK2 fluorescence; also recorded: more effective in quenching | – | – | showed evidence for inhibiting ERK-mediated ELK-1 phosphorylation; also recorded: inhibited EGF-mediated ELK-1 phosphorylation | little effect on ERK1/2 phosphorylation | > 100
